Experimental findings from patent US10537580B2, “Azocane and azonane derivatives and methods of treating hepatitis B infections” (Novira Therapeutics, Inc., priority 2015, dated 2020) are described below.

For assay [1], the system named is HBV replication in HepG2-2.2.15 cells. Briefly: Inhibition of HBV replication dot-blot assay. The assay is classed as cell-based. The conditions noted are these: at 10 μM, six days, reduction in HBV DNA levels. On the procedure: Compounds active in the HBV assembly assay are tested for their activity and toxicity in cellular assay. In the first anti-viral assay, the ability of compounds to inhibit HBV replication in an HBV-producing hepatoma cell line using the dot-blot method is evaluated.
Briefly, confluent monolayers of HepG2-2.2.15 cells are incubated with complete medium containing various concentrations of a test compound. Three days later, the culture medium is replaced with fresh medium containing the appropriately diluted test compound. Six days following the initial administration of the test compound, the cell culture supernatant is collected, and cell lysis is performed. The samples are applied onto Nylos membranes and DNA is immobilized to the membrane by UV cross-linking. After pre-hybridization, the HBV probe is added and the hybridization is performed overnight. The membranes are exposed to the Kodak films; antiviral activity is calculated from the reduction in HBV DNA levels (EC50). The EC50 for antiviral activity is calculated from the dose response curves of active compounds. Assay performance over time is monitored by the use of the standard positive control compounds ETV, BAY 41-4109, and HAP-1.
Selected compounds were tested for their activity and toxicity in cellular assay. In the first anti-viral assay, the ability of compounds to inhibit HBV replication in an HBV-producing hepatoma cell line using the dot-blot method was evaluated.
Confluent monolayers of HepG2-2.2.15 cells were incubated with complete medium containing various concentrations of a test compound. Three days later, the culture medium was replaced with fresh medium containing the appropriately diluted test compound. Six days following the initial administration of the test compound, the cell culture supernatant was collected, and cell lysis was performed. The samples were applied onto Nylos membranes and DNA was immobilized to the membrane by UV cross-linking. After pre-hybridization, the HBV probe was added and the hybridization was performed overnight. The membranes were exposed to the Kodak films; antiviral activity was calculated from the reduction in HBV DNA levels (EC50). The EC50 for antiviral activity was calculated from the dose response curves of active compounds. Assay performance over time was monitored by the use of the standard positive control compounds ETV, BAY 41-4109, and HAP-1.

For assay [2], the target named is mutant C150 HBV capsid protein (C150Bo) (Hepatitis B virus genotype D subtype adw, UniProt P03147, C107A/C48A/C61A/R150C). The assay can be described thus: HBV assembly assay (fluorescence quenching in vitro capsid assembly). It is filed as biochemical. Conditions: at about 10 μM; 50 mM Hepes pH 7.5, 150 mM NaCl, 1 hour at room temperature.
Sequence of mutant C150 HBV capsid protein (C150Bo) (P03147 whole entry C107A/C48A/C61A/R150C, looked up): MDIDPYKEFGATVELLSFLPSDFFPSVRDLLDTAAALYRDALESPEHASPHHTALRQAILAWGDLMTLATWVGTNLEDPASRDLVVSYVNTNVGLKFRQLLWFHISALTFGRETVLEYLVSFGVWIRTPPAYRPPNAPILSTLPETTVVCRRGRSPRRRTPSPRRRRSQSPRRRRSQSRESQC

Regarding `O=C(Nc1ccc(F)c(Cl)c1)c1ccc(F)c(S(=O)(=O)N2CCOCCC(O)C2)c1` (stereo not shown) [Compound 2039], in assay [1], the Activity in dot-blot-assay result is reported as “+ (‘+’ indicates >50% activity at 10 μM)”. Besides, the “Activity (HBV assembly assay)” value in assay [2] is recorded as “+ (‘+’ indicates >50% activity at about 10 μM)”.
The matching figures for `O=C(Nc1ccc(F)c(Cl)c1)c1ccc(F)c(S(=O)(=O)N2CCOCC(O)CC2)c1` (stereo not shown) [Compound 2040_E1]: “+ (‘+’ indicates >50% activity at 10 μM)” and “+ (‘+’ indicates >50% activity at about 10 μM)”.
For `O=C(Nc1ccc(F)c(Cl)c1)c1ccc(F)c(S(=O)(=O)N2CCCCC(O)C(F)C2)c1` (stereo not shown) [Compound 2285_D2], the Activity in dot-blot-assay result in assay [1] is recorded as “+ (‘+’ indicates >50% activity at 10 μM)”. In assay [2], the “Activity (HBV assembly assay)” value is “+ (‘+’ indicates >50% activity at about 10 μM)”.
Turning to `O=C(Nc1cc(F)c(F)c(F)c1)c1ccc(F)c(S(=O)(=O)N2CCCCCCCC2)c1` [Compound 2435], the Activity in dot-blot-assay result in assay [1] is “+ (‘+’ indicates >50% activity at 10 μM)”. The “Activity (HBV assembly assay)” value in assay [2] is recorded as “+ (‘+’ indicates >50% activity at about 10 μM)”.
Taken in the same sequence, the figures for `O=C(Nc1ccc(F)c(Cl)c1)c1ccc(F)c(S(=O)(=O)N2CCOCC(O)CC2)c1` (stereo not shown) [Compound 2040_E2] were “+ (‘+’ indicates >50% activity at 10 μM)” and “+ (‘+’ indicates >50% activity at about 10 μM)”.
Taken in the same sequence, the figures for `O=C(Nc1ccc(F)c(Cl)c1)c1ccc(F)c(S(=O)(=O)N2CCCCCCCC2)c1` [Compound 2436] were “+ (‘+’ indicates >50% activity at 10 μM)” and “+ (‘+’ indicates >50% activity at about 10 μM)”.
As to `O=C(Nc1ccc(F)c(Cl)c1)c1ccc(F)c(S(=O)(=O)N2CCCCC(O)C(F)C2)c1` (stereo not shown) [Compound 2285_D1], the Activity in dot-blot-assay entry in assay [1] is “+ (‘+’ indicates >50% activity at 10 μM)”. Also, the “Activity (HBV assembly assay)” value in assay [2] was “+ (‘+’ indicates >50% activity at about 10 μM)”.
The matching figures for `O=C(Nc1cc(F)c(F)c(F)c1)c1ccc(F)c(S(=O)(=O)N2CCOCC(O)CC2)c1` (stereo not shown) [Compound 2520]: “+ (‘+’ indicates >50% activity at 10 μM)” and “+ (‘+’ indicates >50% activity at about 10 μM)”.
